Results as given in PMC5011342, “A high throughput drug screening assay to identify compounds that promote oligodendrocyte differentiation using acutely dissociated and purified oligodendrocyte precursor cells” (BMC Research Notes, 2016).
Like-named read-outs stand apart in the source and are kept apart here.

Columns and labels:
expanded OPCs = experiment: cells; details: for viability at 0.1 µM / viability at 1 µM / viability at 10 µM: Rattus norvegicus, 72 h
Summary of the method: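 Expanded OPCs seeded at 10,000 cells/well in differentiation media, then exposed to NCC library compounds at 10, 1 and 0.1 µM (quadruplicate, 0.1% DMSO) for three days. Viability read as alamarBlue fluorescence (560/590 nm) after 4 h at 37 °C; tunicamycin 5 ng/ml served as toxicity control.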

[1] = test system: acutely dissociated and purified rat OPCs; experiment: Acute OL differentiation assay (MBP expression/cell, immunofluorescent image quantification); format: cell-based; details: sheet "All OLga data"
Summary of the method: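 Oligodendrocyte precursor cells were enriched from P6-P7 Sprague–Dawley rat brains by immunopanning (RAN-2 and GalC depletion, O4 selection), plated at 5000 cells/well in serum-free, mitogen-free differentiation media on PDL/laminin 96-well view plates, centrifuged at 200×g, and pre-incubated 1–2 h before test compounds were added in quadruplicate. On DIV4, cells were fixed, stained for MBP and DAPI, imaged automatically, and MBP expression per cell was quantified.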

[2] = read-out: 0.1 µM (% DMSO), alamarBlue viability of expanded OPCs, compound at 0.1 µM, sheet All Tox data
[3] = read-out: 1 µM (% DMSO), alamarBlue viability of expanded OPCs, compound at 1 µM, sheet All Tox data
[4] = read-out: 10 µM (% DMSO), alamarBlue viability of expanded OPCs, compound at 10 µM, sheet All Tox data
[5] = Rattus norvegicus, 2 uM test compound, relative to quetiapine, read-out: OL differentiation, 2 uM (% Quet)
[6] = Rattus norvegicus, 10 uM test compound, relative to quetiapine, read-out: OL differentiation, 10 uM (% Quet)
[7] = read-out: 0.1 µM (% DMSO), alamarBlue viability, NCC library compound at 0.1 µM, sheet "All Tox data"
[8] = read-out: 1 µM (% DMSO), alamarBlue viability, NCC library compound at 1 µM, sheet "All Tox data"
[9] = read-out: 10 µM (% DMSO), alamarBlue viability, NCC library compound at 10 µM, sheet "All Tox data"
[10] = Rattus norvegicus, test compound at 2 uM, NCC library screen, relative to quetiapine, read-out: 2 uM (% Quet)
[11] = Rattus norvegicus, test compound at 10 uM, NCC library screen, relative to quetiapine, read-out: 10 uM (% Quet)
[12] = alamarBlue viability, NCC library compound at 0.1 µM, sheet "All Tox data"
[13] = alamarBlue viability, NCC library compound at 1 µM, sheet "All Tox data"
[14] = alamarBlue viability, NCC library compound at 10 µM, sheet "All Tox data"
[15] = test compound at 2 uM, NCC library screen, relative to quetiapine
[16] = test compound at 10 uM, NCC library screen, relative to quetiapine
[17] = Rattus norvegicus, 0.4 uM test compound, relative to quetiapine, read-out: OL differentiation, 0.4 uM (% Quet)
[18] = alamarBlue viability of expanded OPCs, compound at 0.1 µM, relative to DMSO control
[19] = alamarBlue viability of expanded OPCs, compound at 1 µM, relative to DMSO control
[20] = alamarBlue viability of expanded OPCs, compound at 10 µM, relative to DMSO control

Compound	viability at 0.1 µM (expanded OPCs; [2]) [%]	viability at 1 µM (expanded OPCs; [3]) [%]	viability at 10 µM (expanded OPCs; [4]) [%]	activation at 2 µM [1, 5] [%]	activation at 10 µM [1, 6] [%]	viability at 0.1 µM (expanded OPCs; [7]) [%]	viability at 1 µM (expanded OPCs; [8]) [%]	viability at 10 µM (expanded OPCs; [9]) [%]	activation at 2 µM [1, 10] [%]	activation at 10 µM [1, 11] [%]	also measured
CCOC(=O)c1ncn2c1CN(C)C(=O)c1cc(F)ccc1-2 [Flumazenil]	84.8	88.2	95.5	-7.2	-31.7	–	–	–	–	–	–
N#Cc1ccc(C(c2ccc(C#N)cc2)n2cncn2)cc1 [letrozole]	92	99.2	101	1.2	-4.8	–	–	–	–	–	–
Cc1c(OCC(F)(F)F)ccnc1C[S+]([O-])c1nc2ccccc2[nH]1 (stereo not shown) [Lansoprazole]	–	–	–	–	–	94.2	86.3	99.9	-3.1	-72	–
CCN(CC)CC1CCCCN1CC(=O)N1c2ccccc2C(=O)Nc2cccnc21 (stereo not shown) [Otenzepad]	–	–	–	–	–	91.2	81.4	75.7	11.2	13.5	–
O=C1CC2(CCCC2)CC(=O)N1CCNCC1COc2ccccc2O1 (stereo not shown) [Binospirone]	–	–	–	–	–	96	97.6	97.4	37.7	14.1	–
CCN1CCCC1CNC(=O)c1cc(S(N)(=O)=O)ccc1OC (stereo not shown) [Sulpiride]	105	116	115	-9.7	6	–	–	–	–	–	–
C[C@H](CCC(=O)O)[C@H]1CC[C@H]2[C@@H]3C(=O)C[C@@H]4CC(=O)CC[C@]4(C)[C@H]3CC(=O)[C@]12C [Dehydrocholic Acid]	–	–	–	–	–	101	106	109	-12.3	-5.3	–
CN(C)CC/C=C1/c2ccccc2COc2ccc(CC(=O)O)cc21 [Olopatadine]	–	–	–	–	–	88.7	89.3	77.6	-29.3	-29	–
O=C(O)c1cc(/N=N/c2ccc(S(=O)(=O)Nc3ccccn3)cc2)ccc1O [Sulfasalazine]	89	89.8	94.9	15.1	-0.6	–	–	–	–	–	–
CC(C)(C)NC[C@H](O)COc1nsnc1N1CCOCC1 [Timolol]	–	–	–	–	–	99.5	89.9	92.8	-5.6	-24.3	–
COc1cc(C[C@@H](CO)[C@H](CO)Cc2ccc(O)c(OC)c2)ccc1O [Secoisolariciresinol]	–	–	–	–	–	–	–	–	–	–	0.1 µM (% DMSO) (expanded OPCs; [12]): 92.4 % DMSO; 1 µM (% DMSO) (expanded OPCs; [13]): 88.4 % DMSO; 10 µM (% DMSO) (expanded OPCs; [14]): 78.5 % DMSO; 2 uM (% Quet) [1, 15]: -3.9 % Quet; 10 uM (% Quet) [1, 16]: 12.5 % Quet
CC1Cc2ccccc2N1NC(=O)c1ccc(Cl)c(S(N)(=O)=O)c1 (stereo not shown) [Indapamide]	–	–	–	–	–	95.2	92.1	101	-10	-12.4	–
CC(=O)CCCCn1c(=O)c2c(ncn2C)n(C)c1=O [Pentoxifylline]	107	101	98	12.2	-23.3	92.8	93.6	94.9	16.8	7.2	–
COc1ccc(-c2oc3c(CC=C(C)C)c(O[C@@H]4O[C@H](CO)[C@@H](O)[C@H](O)[C@H]4O)cc(O)c3c(=O)c2O[C@@H]2O[C@@H](C)[C@H](O)[C@@H](O)[C@H]2O)cc1 [Icariin]	86.4	88.3	88.8	6.3	9.8	–	–	–	–	–	–
COc1ccc(-c2cc(=O)c3c(OC)c(OC)c(OC)c(OC)c3o2)cc1OC [Nobiletin]	76.3	28.1	28.1	–	–	–	–	–	–	–	activation at 0.08 µM ([1]; Rattus norvegicus, 0.08 uM test compound, relative to quetiapine, read-out: OL differentiation, 0.08 uM (% Quet)): 8.4%; activation at 0.4 µM [1, 17]: -28.4%
CC[N+](C)(CC)CCOC(=O)C(O)(c1ccccc1)C1CCCCC1 (stereo not shown) [Oxyphenonium]	–	–	–	–	–	92.5	97.2	94.9	-6.1	36.4	–
NNCCc1ccccc1 [Phenelzine]	78.4	80.2	93.1	18	18.6	–	–	–	–	–	0.1 µM (% DMSO) (expanded OPCs; [18]): 94.0 % DMSO; 1 µM (% DMSO) (expanded OPCs; [19]): 95.0 % DMSO; 10 µM (% DMSO) (expanded OPCs; [20]): 87.1 % DMSO; activation at 2 µM ([1]; Rattus norvegicus, test compound at 2 uM, MBP expression relative to quetiapine, NCC library screen, read-out: 2 uM (% Quet)): 3.7%; activation at 10 µM ([1]; Rattus norvegicus, test compound at 10 uM, MBP expression relative to quetiapine, NCC library screen, read-out: 10 uM (% Quet)): -4.2%
CN1CCC(=C2c3ccccc3CCc3sccc32)CC1 [Pizotyline]	86.7	65.3	24.6	-30.6	–	–	–	–	–	–	activation at 0.4 µM [1, 17]: -8.8%
CN1CCCC(n2nc(Cc3ccc(Cl)cc3)c3ccccc3c2=O)CC1 (stereo not shown) [Azelastine]	90.1	51.5	12	-19	–	–	–	–	–	–	activation at 0.4 µM [1, 17]: 1%
N[C@@H](C(=O)N[C@@H]1C(=O)N2C(C(=O)O)=C(CSc3c[nH]nn3)CS[C@H]12)c1ccc(O)cc1 [Cefatrizine]	99.1	95.1	104	11.1	-10.4	–	–	–	–	–	–
O=C(O[C@H]1[C@H](Oc2ccccc2COC(=O)C2(O)C=CCCC2=O)O[C@H](CO)[C@@H](O)[C@@H]1O)c1ccccc1 (stereo partly shown) [Tremulacin]	–	–	–	–	–	86.6	85.4	20.7	-176	–	activation at 0.4 µM ([1]; Rattus norvegicus, test compound at 0.4 uM, NCC library screen, relative to quetiapine, read-out: 0.4 uM (% Quet)): -46.7%
C[C@H](N[C@@H](CCc1ccccc1)C(=O)O)C(=O)N1CCC[C@H]1C(=O)O [Enalaprilat]	–	–	–	–	–	–	–	–	–	–	0.1 µM (% DMSO) (expanded OPCs; [12]): 92.9 % DMSO; 1 µM (% DMSO) (expanded OPCs; [13]): 91.2 % DMSO; 10 µM (% DMSO) (expanded OPCs; [14]): 83.0 % DMSO; OL differentiation, 2 uM (% Quet) ([1]; 2 uM test compound, relative to quetiapine): -17.8 % Quet; OL differentiation, 10 uM (% Quet) ([1]; 10 uM test compound, relative to quetiapine): -49.3 % Quet
CC[N+](C)(C)c1cccc(O)c1 [Edrophonium]	–	–	–	–	–	93	91	100	10.5	10.8	–
CCCCC[C@H](O)/C=C/[C@H]1[C@H](O)CC(=O)[C@@H]1CCCCCCC(=O)O [Alprostadil]	–	–	–	–	–	84.4	85.6	81.6	-7.2	-67.6	–
CN1C(=O)CC[C@H]1c1cccnc1 [Cotinine]	88.9	92	98.7	-8.8	21.8	–	–	–	–	–	–
Cc1ccc(C)c(OCCCC(C)(C)C(=O)O)c1 [Gemfibrozil]	–	–	–	–	–	–	–	–	0.66	16.1	0.1 µM (% DMSO) (expanded OPCs; [18]): 90.1 % DMSO; 1 µM (% DMSO) (expanded OPCs; [19]): 88.1 % DMSO; 10 µM (% DMSO) (expanded OPCs; [20]): 86.3 % DMSO
Methanesulfonamide	–	–	–	–	–	–	–	–	–	–	0.1 µM (% DMSO) (expanded OPCs; [12]): 118.1 % DMSO; 1 µM (% DMSO) (expanded OPCs; [13]): 132.7 % DMSO; 10 µM (% DMSO) (expanded OPCs; [14]): 132.9 % DMSO; 2 uM (% Quet) [1, 15]: -6.5 % Quet; 10 uM (% Quet) [1, 16]: 5.8 % Quet
